# Measurements from ChEMBL document CHEMBL3885881, “DrugMatrix”.
# Species: Rattus norvegicus
# Assay: DrugMatrix - Regimen: Daily Repeat
# Type: toxicity, organism-based, Sprague-Dawley
# Parameters: regimen Daily Repeat, gender Male, age 6-8 weeks
# Conditions: in vivo, po, route oral GAVAGE, […]; for ABSOLUTE BASOPHIL / ABSOLUTE EOSINOPHIL / ABSOLUTE LYMPHOCYTE / ABSOLUTE MONOCYTE / ABSOLUTE SEGMENTED NEUTROPHIL / BASOPHIL / EOSINOPHIL / ERYTHROCYTE COUNT / HEMATOCRIT / HEMOGLOBIN / LEUKOCYTE COUNT / LYMPHOCYTE / MEAN CORPUSCULAR HEMOGLOBIN / MEAN CORPUSCULAR HEMOGLOBIN CONCENTRATION / MEAN CORPUSCULAR VOLUME / MONOCYTE / NEUTROPHIL / NUCLEATED RED BLOOD CELLS / PLATELET COUNT: tissue Blood; for ALANINE AMINOTRANSFERASE / ALBUMIN / ALKALINE PHOSPHATASE / ASPARTATE AMINOTRANSFERASE / BLOOD UREA NITROGEN / CARBON DIOXIDE / CHLORIDE / CHOLESTEROL / CREATINE PHOSPHOKINASE / CREATININE / GLUCOSE / LACTATE DEHYDROGENASE / LIPASE / PHOSPHORUS / POTASSIUM / SODIUM / TOTAL BILIRUBIN / TOTAL PROTEIN / URIC ACID: tissue Plasma
# [1] = 0 mg/kg, 72 h, dose level Control, time 3 day
# [2] = 0 mg/kg, 120 h, dose level Control, time 5 day
# [3] = 100 mg/kg, 72 h, dose level M1, time 3 day
smiles,measurement,setting,value
CC(C)(c1ccc(O)cc1)c1ccc(O)cc1 [BISPHENOL A],ABSOLUTE BASOPHIL,[1],0 CELLS/uL
same,ABSOLUTE EOSINOPHIL,[1],33 CELLS/uL
same,ABSOLUTE LYMPHOCYTE,[1],9048.5 CELLS/uL
same,ABSOLUTE MONOCYTE,[1],80.17 CELLS/uL
same,ABSOLUTE SEGMENTED NEUTROPHIL,[1],1521.67 CELLS/uL
same,BASOPHIL,[1],0%
same,EOSINOPHIL,[1],0.17%
same,ERYTHROCYTE COUNT,[1],5.46 x10E6/uL
same,HEMATOCRIT,[1],32.87%
same,HEMOGLOBIN,[1],12.95 G/DL
same,LEUKOCYTE COUNT,[1],10.68 x10E3/uL
same,LYMPHOCYTE,[1],86.67%
same,MEAN CORPUSCULAR HEMOGLOBIN,[1],23.72 pg
same,MEAN CORPUSCULAR HEMOGLOBIN CONCENTRATION,[1],39.4 G/DL
same,MEAN CORPUSCULAR VOLUME,[1],60.18 fL
same,MONOCYTE,[1],0.83%
same,NEUTROPHIL,[1],12.33%
same,NUCLEATED RED BLOOD CELLS,[1],0 /100WBC
same,PLATELET COUNT,[1],1211.33 x10E3/uL
same,ALANINE AMINOTRANSFERASE,[1],76.67 u/L
same,ALBUMIN,[1],3.93 G/DL
same,ALKALINE PHOSPHATASE,[1],317.17 u/L
same,ASPARTATE AMINOTRANSFERASE,[1],81.17 u/L
same,BLOOD UREA NITROGEN,[1],12.33 mg/dL
same,CARBON DIOXIDE,[1],31.17 mmol/L
same,CHLORIDE,[1],98.33 MEQ/L
same,CHOLESTEROL,[1],67.17 mg/dL
same,CREATINE PHOSPHOKINASE,[1],312.33 u/L
same,CREATININE,[1],0.19 mg/dL
same,GLUCOSE,[1],165.5 mg/dL
same,LACTATE DEHYDROGENASE,[1],94.5 u/L
same,LIPASE,[1],9.83 u/L
same,PHOSPHORUS,[1],10.1 mg/dL
same,POTASSIUM,[1],5.16 MEQ/L
same,SODIUM,[1],143.02 MEQ/L
same,TOTAL BILIRUBIN,[1],0.2 mg/dL
same,TOTAL PROTEIN,[1],5.88 G/DL
same,URIC ACID,[1],0.68 mg/dL
same,ABSOLUTE BASOPHIL,[2],0 CELLS/uL
same,ABSOLUTE EOSINOPHIL,[2],14.67 CELLS/uL
same,ABSOLUTE LYMPHOCYTE,[2],9629.83 CELLS/uL
same,ABSOLUTE MONOCYTE,[2],72.5 CELLS/uL
same,ABSOLUTE SEGMENTED NEUTROPHIL,[2],1049.67 CELLS/uL
same,BASOPHIL,[2],0%
same,EOSINOPHIL,[2],0.17%
same,ERYTHROCYTE COUNT,[2],5.36 x10E6/uL
same,HEMATOCRIT,[2],33.82%
same,HEMOGLOBIN,[2],13.48 G/DL
same,LEUKOCYTE COUNT,[2],10.77 x10E3/uL
same,LYMPHOCYTE,[2],90.17%
same,MEAN CORPUSCULAR HEMOGLOBIN,[2],25.28 pg
same,MEAN CORPUSCULAR HEMOGLOBIN CONCENTRATION,[2],39.92 G/DL
same,MEAN CORPUSCULAR VOLUME,[2],63.3 fL
same,MONOCYTE,[2],0.67%
same,NEUTROPHIL,[2],9%
same,NUCLEATED RED BLOOD CELLS,[2],0.17 /100WBC
same,PLATELET COUNT,[2],1275.33 x10E3/uL
same,ALANINE AMINOTRANSFERASE,[2],93.67 u/L
same,ALBUMIN,[2],4.17 G/DL
same,ALKALINE PHOSPHATASE,[2],402.5 u/L
same,ASPARTATE AMINOTRANSFERASE,[2],122.83 u/L
same,BLOOD UREA NITROGEN,[2],14.75 mg/dL
same,CARBON DIOXIDE,[2],26.4 mmol/L
same,CHLORIDE,[2],98.5 MEQ/L
same,CHOLESTEROL,[2],57.5 mg/dL
same,CREATINE PHOSPHOKINASE,[2],305.17 u/L
same,CREATININE,[2],0.21 mg/dL
same,GLUCOSE,[2],142 mg/dL
same,LACTATE DEHYDROGENASE,[2],83.5 u/L
same,LIPASE,[2],85.83 u/L
same,PHOSPHORUS,[2],8.18 mg/dL
same,POTASSIUM,[2],5.46 MEQ/L
same,SODIUM,[2],144 MEQ/L
same,TOTAL BILIRUBIN,[2],0.25 mg/dL
same,TOTAL PROTEIN,[2],5.63 G/DL
same,URIC ACID,[2],0.8 mg/dL
same,ABSOLUTE BASOPHIL,[3],0 CELLS/uL
same,ABSOLUTE EOSINOPHIL,[3],35.67 CELLS/uL
same,ABSOLUTE LYMPHOCYTE,[3],8627 CELLS/uL
same,ABSOLUTE MONOCYTE,[3],90.33 CELLS/uL
same,ABSOLUTE SEGMENTED NEUTROPHIL,[3],547 CELLS/uL
same,BASOPHIL,[3],0%
same,EOSINOPHIL,[3],0.33%
same,ERYTHROCYTE COUNT,[3],5.35 x10E6/uL
same,HEMATOCRIT,[3],33.47%
same,HEMOGLOBIN,[3],13.5 G/DL
same,LEUKOCYTE COUNT,[3],9.3 x10E3/uL
same,LYMPHOCYTE,[3],92.67%
same,MEAN CORPUSCULAR HEMOGLOBIN,[3],25.27 pg
same,MEAN CORPUSCULAR HEMOGLOBIN CONCENTRATION,[3],40.33 G/DL
same,MEAN CORPUSCULAR VOLUME,[3],62.63 fL
same,MONOCYTE,[3],1%
same,NEUTROPHIL,[3],6%
same,NUCLEATED RED BLOOD CELLS,[3],0 /100WBC
same,PLATELET COUNT,[3],906.33 x10E3/uL
same,ALANINE AMINOTRANSFERASE,[3],76.33 u/L
same,ALBUMIN,[3],4 G/DL
same,ALKALINE PHOSPHATASE,[3],385 u/L
same,ASPARTATE AMINOTRANSFERASE,[3],87 u/L
same,BLOOD UREA NITROGEN,[3],12 mg/dL
same,CARBON DIOXIDE,[3],31.67 mmol/L
same,CHLORIDE,[3],98 MEQ/L
same,CHOLESTEROL,[3],61 mg/dL
same,CREATINE PHOSPHOKINASE,[3],318 u/L
same,CREATININE,[3],0.17 mg/dL
same,GLUCOSE,[3],154 mg/dL
same,LACTATE DEHYDROGENASE,[3],114.33 u/L
same,LIPASE,[3],9.67 u/L
same,PHOSPHORUS,[3],10.63 mg/dL
same,POTASSIUM,[3],5.46 MEQ/L
same,SODIUM,[3],142.7 MEQ/L
same,TOTAL BILIRUBIN,[3],0.17 mg/dL
same,TOTAL PROTEIN,[3],5.73 G/DL
same,URIC ACID,[3],0.77 mg/dL
